The record followed here is US5614554A, “Reverse transcriptase inhibitors and antiviral agents” (Nippon Flour Mills Co., Ltd., priority 1992, dated 1997).

Molecules are shown by their SMILES. “Also recorded” adds a separate entry of the source. Like-named read-outs stand apart in the source and are kept apart here.

Series [1] deals with mice leukemia cell L1210. The experiment in a line: Influence on the proliferation of mice leukemia cell L1210. Type of series: cell-based. The note with it: 250 μg/ml, cultured for four days, compared with compound-free control. The procedure: To the culture of mice leukemia cell L1210, sodium L-tyrosine sulfate was added at the concentration of 250 μg/ml and then the mixture was cultured for four days.

Series [2] is described as follows: Solvent solubility. Type of series: physicochemical. The note with it: sulfate.
Series [3] has as its system male mice of ICR. The experiment in a line: Acute toxicity on mice. Type of series: in vivo. As to conditions: intraperitoneally, 500 mg/kg, male ICR mice at age of 4 weeks. The method, then:
Sodium L-tyrosine sulfate was intraperitoneally injected to male mice of ICR at age of 4 weeks at the dose of 500 mg/kg to examine an acute toxicity.

Series [4] has as its target reverse transcriptase derived from AMV. The series can be described thus: Reverse transcriptase inhibitory effect, AMV enzyme. Type of series: biochemical, AMV (avian myeloblastosis virus). As to conditions: poly(A).oligo(dT)12-18, 37° C., 10 minutes. The procedure:
(§1) 20 μl of reaction solution was prepared so as to comprise 50 mM of Tris-hydrochloric acid buffer solution (pH 8.5), 40 mM of KCl, 6 mM of MgCl2, 1 mM of dithiothreitol, 50 μg/ml of poly(A). oligo (dT)12-18, [α^-32 P] deoxythymidine triphosphate, reverse transcriptase and sodium L-tyrosine sulfate.
(§2) After the reaction solution was incubated at 37° C. for 10 minutes, the reaction solution was deposited on DE 81 filter (available from Whatman). The filter was then washed thoroughly with 5% aqueous solution of Na2 HPO4 and subsequently with water, ethanol and diethyl ether. Radiation of the filter was examined by scintillation counter and then the concentration which inhibits 50% of reverse transcriptase activity (IC50) was calculated.
(§3) The reverse transcriptases used in this test were those derived from AMV (avian myeloblastosis virus) and HIV.

The target in series [5] is T1, reverse transcriptase derived from HIV (Human immunodeficiency virus type 1 group M subtype B, UniProt P04585).
T1 construct: the reverse transcriptase derived from HIV
The series can be described thus: Reverse transcriptase inhibitory effect, HIV enzyme. Type of series: biochemical. The procedure:
as §1, §2, §3

Series [6] can be described thus: Influence on the proliferation of T cells (non-infected MT-4 cells). Type of series: cell-based. As to conditions: human, read-out: Survival rate. The procedure:
(§4) In this test, there were used human T cell strain MT-4 cells (Gann monogr., Vol. 28, pp219-228 (1982)), which was tranformed with HTLV-1 which is an etiogenic virus of adult T cell leukemia, and HTLV-IIIB which is one of HIV strains. This test was performed in accordance with the method of Pauwels et al. (Pauwels et al., J. Virol. Methods, Vol. 20, pp309-21 (1988)).
(§5) Immediately after MT-4 cells were infected with HTLV-IIIB [MOI (multiplicity of infection =the number of inoculated virus/the number of cells): 0.01], sodium L-tyrosine sulfate and the HTLV-IIB-infected MT-4 cells were added to a microtiter plate having 96 wells at a variety of concentrations of sodium L-tyrosine sulfate and the concentration of 2.5×10^4 cells/well, respectively. These samples were cultivated at 37° C. for five days with carbon dioxide incubator. According to MTT method, the number of survival cells was then determined by measuring an absorbance to calculate an efficiency.
As in Test Example 1, there was determined the influence of sodium L-tyrosine sulfate on the proliferation of HTLV-IIIB-non-infected MT-4 cells and the survival rate of the cells was calculated.

Series [7] has as its system HTLV-IIIB. The experiment in a line: Inhibitory effect on HIV-induced cell damage in infected MT-4 cells (MTT method). The note with it: Human immunodeficiency virus 1, IIIB, MT4, 120 h, read-out: Efficiency. Type of series: cell-based. The method, then: as §4, §5
On the technique in general: Tetrazolium dyes change colour on reduction, which living cells bring about.

Consider `N[C@@H](Cc1ccc(OS(=O)(=O)[O-])cc1)C(=O)O.[Na+]`, for which, in series [1], the “Inhibitory effect on the proliferation of L1210” value was “hardly any inhibitory effects on the proliferation”. Further, the Solvent solubility entry in series [2] (product of Synthesis Example 1 before purification) was “soluble in water, methanol and dimethyl sulfoxide; also recorded: insoluble in acetone, ethylacetate, hexane and chloroform”; in series [2] (product of Synthesis Example 1 purified by Sephadex LH-20), “soluble in water, methanol and dimethyl sulfoxide; also recorded: insoluble in acetone, ethylacetate, hexane and chloroform”. The Acute toxicity result in series [3] is listed as “not observed any remarkable toxicity”. For the same compound, the “IC50 (concentration which inhibits 50% of reverse transcriptase activity)” value in series [4] is 230 µg/mL.
The IC50 is the point on the concentration scale where inhibition reaches its midpoint. Read a high IC50 as a need for much substance. `N[C@@H](Cc1ccc(OS(=O)(=O)[O-])cc1)C(=O)O.[Na+]` [sulfate] had an IC50 in series [5] of 127 µM. Moreover, the viability at 120 h in series [6] (0.32 μg/ml) was determined as 98%; in series [6] (1.6 μg/ml), 97%; in series [6] (8 μg/ml) it was 110%; in series [6] (40 μg/ml) it was 94%; in series [6] (200 μg/ml), 120%; in series [6] (1000 μg/ml) it was 112%. The inhibition at 0.32 µg/mL in series [7] was -5%. The inhibition at 1.6 µg/mL in series [7] was determined as 61%. Also, in series [7], the inhibition at 8 µg/mL turned out to be 116%. In series [7], the inhibition at 40 µg/mL stood at 91%. Besides, in series [7], the inhibition at 200 µg/mL turned out to be 124%. The inhibition at 1000 µg/mL in series [7] was 106%.
